Experiments:
[1] = system: Mycosphaerella graminicola; anamorph: Septoria tritici (SEPTTR); experiment: Fungicidal activity: leaf blotch of wheat (SEPTTR), wheat seedlings sprayed and inoculated; type: in vivo; details: 50 ppm, wheat plants (variety Yuma); for SEPTTR 1DP (% disease control rating): 1 Day Protectant; for SEPTTR 3DC (% disease control rating): 3 Day Curative
Protocol: Technical grades of materials shown in Table 1 below were dissolved in acetone, which were then mixed with nine volumes of water containing 110 ppm Triton X-100. The fungicide solutions were applied onto wheat seedlings using an automated booth sprayer to run-off. All sprayed plants were allowed to air dry prior to further handling. All fungicides were evaluated using the aforementioned method for their activity vs. all target diseases. Wheat plants (variety Yuma) were grown from seed in a greenhouse in 50% mineral soil/50% soil-less Metro mix until the first leaf was fully emerged, with 7-10 seedlings per pot. These plants were inoculated with an aqueous spore suspension of Septoria tritici either prior to or after fungicide treatments. After inoculation the plants were kept in 100% relative humidity (one day in a dark dew chamber followed by two to three days in a lighted dew chamber at 20° C.) to permit spores to germinate and infect the leaf. The plants were then transferred to a greenhouse set at 20° C. for disease to develop. When disease symptoms were fully expressed on the 1st leaves of untreated plants, infection levels were assessed on a scale of 0 to 100 percent disease severity. Percent disease control was calculated using the ratio of disease severity on treated plants relative to untreated plants.

[2] = system: Puccinia triticina; synonym: Puccinia recondita f. sp. tritici (PUCCRT); experiment: Fungicidal activity: wheat brown rust (PUCCRT), wheat seedlings sprayed and inoculated; type: in vivo; details: 50 ppm, wheat plants (variety Yuma); for PUCCRT 1DC (% disease control rating): 1 Day Curative; for PUCCRT 1DP (% disease control rating): 1 Day Protectant

Compound | SEPTTR 1DP (% disease control rating) [1] | SEPTTR 3DC (% disease control rating) [1] | PUCCRT 1DC (% disease control rating) [2] | PUCCRT 1DP (% disease control rating) [2]
Cc1ccc(S(=O)(=O)c2nnnn2CC(O)(c2ccc(F)cc2F)C(F)(F)c2ccc(Oc3ccc(C#N)cc3)cn2)cc1 (stereo not shown) [—SO2(4-MePh), 4-((6-(2-(2,4-difluorophenyl)-1,1-difluoro-2-hydroxy-3-(5-tosyl-1H-tetrazol-1-yl)propyl)pyridin-3-yl)oxy)benzonitrile] | C (40-59) | D (<40) | A (80-100) | D (<40)
N#Cc1ccc(Oc2ccc(C(F)(F)C(O)(Cn3nnnc3C(=O)c3ccccc3)c3ccc(F)cc3F)nc2)cc1 (stereo not shown) [—C(O)Ph, 4-((6-(3-(5-benzoyl-1H-tetrazol-1-yl)-2-(2,4-difluorophenyl)-1,1-difluoro-2-hydroxypropyl)pyridin-3-yl)oxy)benzonitrile] | C (40-59) | C (40-59) | D (<40) | A (80-100)
CCOC(=O)c1nnnn1CC(O)(c1ccc(F)cc1F)C(F)(F)c1ccc(Oc2ccc(C#N)cc2)cn1 (stereo not shown) [—CO2Et, ethyl 1-(3-(5-(4-cyanophenoxy)pyridin-2-yl)-2-(2,4-difluorophenyl)-3,3-difluoro-2-hydroxypropyl)-1H-tetrazole-5-carboxylate] | A (80-100) | A (80-100) | A (80-100) | A (80-100)
CC(=O)c1nnnn1CC(O)(c1ccc(F)cc1F)C(F)(F)c1ccc(Oc2ccc(C#N)cc2)cn1 (stereo not shown) [—C(O)Me, 4-((6-(3-(5-acetyl-1H-tetrazol-1-yl)-2-(2,4-difluorophenyl)-1,1-difluoro-2-hydroxypropyl)pyridin-3-yl)oxy)benzonitrile] | A (80-100) | A (80-100) | A (80-100) | A (80-100)

Source: patent publication US9914726B2, “2-(2,4-difluorophenyl)-1,1-difluoro-1-(5-substituted-pyridin-2-yl)-3-(1H-tetrazol-1-yl)propan-2-ols and processes for their preparation” (Viamet Pharmaceuticals, Inc., priority 2014, dated 2018)
